We go through 36 compounds from US12673947B2 (Cytosinlab Therapeutics Co., Ltd., priority 2020, dated 2026).

Test [1] deals with MV4;11 cells. In words: MV4;11 in vitro inhibition of proliferation assay (CellTiter-Glo, 72 hours). Format: cell-based. Conditions: Homo sapiens, MV4-11, 72 h, IC50 class, read-out: Inhibitory activity of cell proliferation MV4;11. The method in brief:
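IC50 came from four-parameter fitting of inhibition rates, based on CellTiter-Glo luminescence after 72 hours at 37° C. Each well held 2000 MV4;11 cells grown in IMDM with 10% serum. Compounds formed a nine-point, threefold DMSO series starting at 10 uM, tested in triplicate at 0.3% final DMSO.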

The target in test [2] is T1, FLT3 (Homo sapiens, UniProt P36888).
T1 construct: purchased Carna 08-145
T1 sequence (P36888 27-993): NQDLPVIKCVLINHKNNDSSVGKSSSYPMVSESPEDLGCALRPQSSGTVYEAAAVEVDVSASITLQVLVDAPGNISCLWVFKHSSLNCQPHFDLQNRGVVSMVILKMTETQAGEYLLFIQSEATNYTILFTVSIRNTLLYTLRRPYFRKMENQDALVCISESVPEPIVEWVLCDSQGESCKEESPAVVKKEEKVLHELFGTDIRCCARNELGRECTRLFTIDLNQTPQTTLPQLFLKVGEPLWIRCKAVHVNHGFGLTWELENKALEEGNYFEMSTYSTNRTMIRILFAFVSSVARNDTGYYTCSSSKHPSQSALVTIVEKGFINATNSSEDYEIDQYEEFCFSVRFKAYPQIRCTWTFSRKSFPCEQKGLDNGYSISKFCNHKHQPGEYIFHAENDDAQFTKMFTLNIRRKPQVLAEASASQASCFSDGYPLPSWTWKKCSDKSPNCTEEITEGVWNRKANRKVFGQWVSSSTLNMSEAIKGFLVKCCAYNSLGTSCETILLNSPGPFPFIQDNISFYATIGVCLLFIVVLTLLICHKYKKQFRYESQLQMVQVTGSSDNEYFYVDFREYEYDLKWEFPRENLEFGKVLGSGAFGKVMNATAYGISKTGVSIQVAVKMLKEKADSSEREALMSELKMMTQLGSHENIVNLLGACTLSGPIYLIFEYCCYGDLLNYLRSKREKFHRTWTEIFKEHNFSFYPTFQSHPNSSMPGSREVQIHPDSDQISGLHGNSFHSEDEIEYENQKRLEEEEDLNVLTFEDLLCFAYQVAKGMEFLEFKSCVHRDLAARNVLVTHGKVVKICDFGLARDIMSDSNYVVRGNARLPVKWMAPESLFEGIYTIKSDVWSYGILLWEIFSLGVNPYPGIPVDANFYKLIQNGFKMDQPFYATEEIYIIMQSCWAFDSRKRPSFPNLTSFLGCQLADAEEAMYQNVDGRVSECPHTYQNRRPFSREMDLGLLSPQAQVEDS
In words: FLT3 kinase in vitro inhibitory activity experiment (Caliper mobility shift, conversion rate). It counts as biochemical. The following applies: IC50 class, read-out: Enzyme activity FLT3. Summed up:
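Tested in single wells as ten 3-fold dilutions of a 1 μM initial stock. Compound and FLT3 stood 10 min at room temperature; ATP with Kinase substrate 2 was then added for 30 min at room temperature and the reaction stopped. Conversion was measured by Caliper mobility shift, and inhibition was normalised to control-well conversion.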

As for `CCc1nc2c(N)ncc(-c3cnn(C4CCN(C5CCN(C6CC6)CC5)CC4)c3)c2nc1NC1CCOCC1` [Compound 243], the IC50 in test [1] and in test [2] was no more than 10 nM in each case.

As to `CCc1nc2c(N)ncc(-c3cnn(C4CCN(C5CCN(CC)CC5)CC4)c3)c2nc1N[C@H]1CCOC1` [Compound 244], the IC50 in test [1] is 10 to 100 nM; in test [2], no more than 10 nM.

`CCc1nc2c(N)ncc(-c3cnn(C4CCN(C5CCN(CC)CC5)CC4)c3)c2nc1N[C@@H]1CC[C@H](O)C1` [Compound 245]: the IC50 in test [1] and in test [2] was no more than 10 nM in each case.

`CCc1nc2c(N)ncc(-c3cnn(C4CCN(C5CCN(CC)CC5)CC4)c3)c2nc1NC1CCCC(O)C1` (stereo not drawn) [Compound 246, 3-((5-amino-3-ethyl-8-(1-(1′-ethyl-[1,4′-bipiperidine]-4-yl)-1H-pyrazol-4-yl)pyridino[3,4-b]pyrazine-2-yl)amino)cyclohexan-1-ol]: the IC50 in test [1] and in test [2] was no more than 10 nM in each case.

`CCc1nc2c(N)ncc(-c3cnn(C4CCN(C5CCN(C)CC5)CC4)c3)c2nc1NC1CCOC1` (stereo not drawn) [Compound 247]: the IC50 was 10 to 100 nM in test [1] and no more than 10 nM in test [2].

In the case of `CCc1nc2c(N)ncc(-c3cnn(C4CCN(C5CCN(C)CC5)CC4)c3)c2nc1N[C@H]1CCOC1` [Compound 248], the IC50 in test [1] is 10 to 100 nM; in test [2], no more than 10 nM.

Regarding `CCc1nc2c(N)ncc(-c3cnn(C4CCN(C5CCN(C)CC5)CC4)c3)c2nc1N[C@@H]1CC[C@H](O)C1` [Compound 249], the IC50 in test [1] and in test [2] was no more than 10 nM in each case.

For the compound `CCc1nc2c(N)ncc(-c3ccc(N4CCC(N5CCN(C)CC5)CC4)c(OC)c3)c2nc1N[C@@H]1CCOC1` [Compound 251], the IC50 is 10 to 100 nM in test [1] and no more than 10 nM in test [2].

On to `CCc1nc2c(N)ncc(-c3ccc(N4CCC(N5CCN(C)CC5)CC4)c(OC)c3)c2nc1N[C@H]1CCOC1` [Compound 252], for which the IC50 in test [1] was 10 to 100 nM; in test [2], no more than 10 nM.

As for `CCc1nc2c(N)ncc(-c3ccc(N4CCC(N5CCN(CC)CC5)CC4)c(OC)c3)c2nc1N[C@@H]1CC[C@H](O)C1` [Compound 253], the IC50 in test [1] and in test [2] was no more than 10 nM in each case.

In the case of `CCc1nc2c(N)ncc(-c3ccc(N4CCC(N5CCN(C)CC5)CC4)c(OC)c3)c2nc1N[C@@H]1CCC[C@H](O)C1` [Compound 257], the IC50 in test [1] and in test [2] was no more than 10 nM each time.

Take `CCc1nc2c(N)ncc(-c3cnn(C4CCN(C(C)C)CC4)c3)c2nc1N[C@@H]1CCC[C@H](O)C1` [Compound 260]: the IC50 in test [1] and in test [2] was no more than 10 nM throughout.

As for `CCc1nc2c(N)ncc(-c3cnn(C4CCN(C)CC4)c3)c2nc1N1CCC(O)C1` (stereo not drawn) [Compound 261], the IC50 in test [1] was 10 to 100 nM; in test [2] it was no more than 10 nM.

`CCc1nc2c(N)ncc(-c3ccc(N4C[C@@H](C)O[C@@H](C)C4)c(OC)c3)c2nc1N[C@@H]1CC[C@H](O)C1` [Compound 265]: the IC50 in test [1] is 10 to 100 nM; in test [2] it was no more than 10 nM.

Regarding `CCc1nc2c(N)ncc(-c3ccc(N4CC5CCC(C4)O5)c(OC)c3)c2nc1N[C@@H]1CC[C@H](O)C1` [Compound 266], the IC50 was 10 to 100 nM in test [1] and no more than 10 nM in test [2].

Turning to `CCc1nc2c(N)ncc(-c3ccc(N4C[C@H](C)O[C@@H](C)C4)c(OC)c3)c2nc1N[C@@H]1CC[C@H](O)C1` [Compound 267], the IC50 in test [1] was 10 to 100 nM; in test [2], no more than 10 nM.

As to `CCc1nc2c(N)ncc(-c3ccc(N4CCC(N5CCN(C)CC5)CC4)c(C(F)F)c3)c2nc1NC1CCOCC1` [Compound 268], the IC50 in test [1] was 10 to 100 nM; in test [2] it was no more than 10 nM.

Regarding `CCc1nc2c(N)ncc(-c3cnn(-c4ncncc4C)c3)c2nc1N[C@@H]1CC[C@H](O)C1` [Compound 269, (1S,3R)-3-((5-amino-3-ethyl-8-(1-(5-methylpyrimidin-4-yl)-1H-pyrazol-4-yl)pyridino[3,4-b]pyrazin-2-yl)amino)cyclopentan-1-ol], the IC50 in test [1] and in test [2] was no more than 10 nM each time.

With `CCc1nc2c(N)ncc(-c3cnn(-c4cc(C)nc(C)n4)c3)c2nc1N[C@@H]1CC[C@H](O)C1` [Compound 270], the IC50 was 10 to 100 nM in test [1] and no more than 10 nM in test [2].

On to `CCc1nc2c(N)ncc(-c3cnn(-c4cccc(C)n4)c3)c2nc1N[C@@H]1CC[C@H](O)C1` [Compound 271], for which the IC50 in test [1] was 10 to 100 nM; in test [2] it was no more than 10 nM.

`CCc1nc2c(N)ncc(-c3cnn(-c4ccnc(C)c4)c3)c2nc1N[C@@H]1CC[C@H](O)C1` [Compound 272]: the IC50 in test [1] and in test [2] was no more than 10 nM throughout.

On to `CCc1nc2c(N)ncc(-c3cnn(-c4ccn(C(C)C)c(=O)c4)c3)c2nc1N[C@@H]1CC[C@H](O)C1` [Compound 273], for which the IC50 in test [1] and in test [2] was no more than 10 nM in each case.

Take `CCc1nc2c(N)ncc(-c3cnn(-c4ccnc(C(F)(F)F)n4)c3)c2nc1N[C@@H]1CC[C@H](O)C1` [Compound 274]: the IC50 in test [1] is 10 to 100 nM; in test [2], no more than 10 nM.

Take `CCc1nc2c(N)ncc(-c3cnn(-c4ccc(OC(C)C)nc4)c3)c2nc1N[C@@H]1CC[C@H](O)C1` [Compound 275]: the IC50 is 10 to 100 nM in test [1] and no more than 10 nM in test [2].

As for `CCc1nc2c(N)ncc(-c3cnn(-c4ccc(C(C)(C)O)cn4)c3)c2nc1N[C@@H]1CC[C@H](O)C1` [Compound 276], the IC50 in test [1] and in test [2] was no more than 10 nM throughout.

For `CCc1nc2c(N)ncc(-c3cnn(-c4ccc(C5CCCCC5)cc4)c3)c2nc1N[C@@H]1CC[C@H](O)C1` [Compound 277], the IC50 in test [1] fell in the range of 100 to 500 nM; in test [2], 10 to 100 nM.

Take `CCc1nc2c(N)ncc(-c3cnn(-c4ccc(C5CCNCC5)cc4)c3)c2nc1N[C@@H]1CC[C@H](O)C1` [Compound 278]: the IC50 in test [1] and in test [2] was no more than 10 nM in each case.

`CCc1nc2c(N)ncc(-c3cnn(-c4ccc(Cl)c(C)c4)c3)c2nc1N[C@@H]1CC[C@H](O)C1` [Compound 279]: the IC50 in test [1] and in test [2] was 10 to 100 nM throughout.

In the case of `CCc1nc2c(N)ncc(-c3cnn(-c4ccnc(C)n4)c3)c2nc1NC1CCOCC1` [Compound 280], the IC50 in test [1] and in test [2] was no more than 10 nM in each case.

For the compound `CCc1nc2c(N)ncc(-c3cnn(-c4ccnc(C)n4)c3)c2nc1N[C@H]1CCOC1` [Compound 281], the IC50 in test [1] and in test [2] was 10 to 100 nM each time.

Consider `CCc1nc2c(N)ncc(-c3cnn(C4CCS(=O)(=O)CC4)c3)c2nc1N[C@@H]1CC[C@H](O)C1` [Compound 282], for which the IC50 in test [1] was 10 to 100 nM; in test [2], no more than 10 nM.

As to `CCc1nc2c(N)ncc(-c3cnn(C4CCc5cc(F)cc(F)c5CC4)c3)c2nc1N[C@@H]1CC[C@H](O)C1` (stereo partly drawn) [Compound 283], the IC50 in test [1] was 10 to 100 nM; in test [2], no more than 10 nM.

For the compound `CCc1nc2c(N)ncc(-c3ccc(N4CC5CCC(C4)N5C)c(OC)c3)c2nc1N[C@@H]1CC[C@H](O)C1` [Compound 286, (1S, 3R)-3-((5-amino-3-ethyl-8-(3-methoxy-4-(8-methyl-3,8-diazabicyclo[3.2.1]octyl-3-yl)phenyl)pyridino[3,4-b]pyrazine-2-yl)amino)cyclopentan-1-ol], the IC50 in test [1] and in test [2] was no more than 10 nM in each case.

Regarding `CCc1nc2c(N)ncc(-c3ccc(N4CCC(N5CCN(C)CC5)C(C)C4)c(OC)c3)c2nc1NC1CCOCC1` (stereo not drawn) [Compound 287, 3-ethyl-8-(3-methoxy-4-(3-methyl-4-(4-methylpiperazine-1-yl)piperidine-1-yl)phenyl)-N2-(tetrahydro-2H-pyran-4-yl)pyridino[3,4-b]pyrazine-2,5-diamine], the IC50 in test [1] is 10 to 100 nM; in test [2], no more than 10 nM.

With `CCc1nc2c(N)ncc(-c3ccc(-c4ccnc(C)n4)c(OC)c3)c2nc1N[C@@H]1CC[C@H](O)C1` [Compound 288, (1S,3R)-3-((5-amino-3-ethyl-8-(3-methoxy-4-(2-methylpyrimidine-4-yl)phenyl)pyrido[3,4-b]pyrazine-2-yl)amino)cyclopentan-1-ol], the IC50 in test [1] was 10 to 100 nM; in test [2] it was no more than 10 nM.

As for `CCc1nc2c(N)ncc(-c3cnn(-c4ccc(C5CCN(C)CC5)cc4)c3)c2nc1N[C@@H]1CC[C@H](O)C1` [Compound 290], the IC50 in test [1] and in test [2] was no more than 10 nM in each case.
